Measurements taken from patent US12227496B2 (BRISTOL-MYERS SQUIBB COMPANY, priority 2019, dated 2025).

Biological target: T1, human FXR (Homo sapiens, UniProt Q96RI1)
T1 construct: expressed in transfected cells; host or cells: HEK293 cells stably carrying a 5xGal4-response-element firefly luciferase reporter, transiently transfected with pcDNA3.1-Gal4-FXR
T1 sequence (Q96RI1 262-486 limits assumed): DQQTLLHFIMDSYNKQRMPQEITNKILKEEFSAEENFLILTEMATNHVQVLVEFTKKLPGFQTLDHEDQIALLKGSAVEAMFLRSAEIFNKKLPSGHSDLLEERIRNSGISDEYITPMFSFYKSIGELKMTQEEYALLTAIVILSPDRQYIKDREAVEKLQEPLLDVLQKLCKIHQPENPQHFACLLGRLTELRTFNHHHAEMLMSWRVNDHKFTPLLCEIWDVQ
Assay: transient human FXR/Gal4-luciferase reporter assay
Type: cell-based
Settings: Gal4-hFXR LBD fusion, luciferase reporter in HEK293 cells; response relative to 8 μM GW-4064
In short: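 HEK293 cells stably carrying a 5×Gal4-response-element firefly luciferase reporter were transiently transfected with Gal4-hFXR. They were then incubated overnight at 37 °C with compound serial dilutions in medium containing 10% charcoal/dextran-stripped FBS. Luminescence was read after Steady-Glo addition.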

Row | EC50 [nM] | SMILES
1 | 195 | CC(F)(F)c1nc(C23CCC(CN(C(=O)C4CCC(O)(C(F)(F)F)CC4)c4cccc(-c5cc(C6CC6)on5)c4)(CC2)CC3)no1 (stereo not shown) [Example 158, N-(3-(5-cyclopropylisoxazol-3-yl)phenyl)-N-((4-(5-(1,1-difluoroethyl)-1,2,4-oxadiazol-3-yl)bicyclo[2.2.2]octan-1-yl)methyl)-4-hydroxy-4-(trifluoromethyl)cyclohexane-1-carboxamide]
2 | 78 | CC(C)(C)c1noc(C23CCC(CN(C(=O)C4CCC(F)(F)CC4)c4cccc(-c5cc(C6CC6)on5)c4)(CC2)CC3)n1 [Example 159, N-((4-(3-(tert-butyl)-1,2,4-oxadiazol-5-yl)bicyclo[2.2.2]octan-1-yl)methyl)-N-(3-(5-cyclopropylisoxazol-3-yl)phenyl)-4,4-difluorocyclohexane-1-carboxamide]
3 | 701 | CC(C)(C)c1noc(C23CCC(CN(C(=O)C4CCS(=O)(=O)CC4)c4cccc(-c5cc(C6CC6)on5)c4)(CC2)CC3)n1 [Example 160, N-((4-(3-(tert-butyl)-1,2,4-oxadiazol-5-yl)bicyclo[2.2.2]octan-1-yl)methyl)-N-(3-(5-cyclopropylisoxazol-3-yl)phenyl)tetrahydro-2H-thiopyran-4-carboxamide 1,1-dioxide]
4 | 77 | CC(C)(C)c1noc(C23CCC(CN(C(=O)C4CCOCC4)c4cccc(-c5cc(C6CC6)on5)c4)(CC2)CC3)n1 [Example 161, N-((4-(3-(tert-butyl)-1,2,4-oxadiazol-5-yl)bicyclo[2.2.2]octan-1-yl)methyl)-N-(3-(5-cyclopropylisoxazol-3-yl)phenyl)tetrahydro-2H-pyran-4-carboxamide]
5 | 41 | CC(C)(C)c1nc(C23CCC(CN(C(=O)C4CCC(F)(F)CC4)c4cccc(-c5cc(C6CC6)on5)c4)(CC2)CC3)no1 [Example 162, N-((4-(5-(tert-butyl)-1,2,4-oxadiazol-3-yl)bicyclo[2.2.2]octan-1-yl)methyl)-N-(3-(5-cyclopropylisoxazol-3-yl)phenyl)-4,4-difluorocyclohexane-1-carboxamide]
6 | 130 | Cn1nc(C2CC2)cc1C12CCC(CN(C(=O)C3CCC(F)(F)CC3)c3cccc(-c4cc(C5CC5)on4)c3)(CC1)CC2 [Example 163, N-((4-(3-cyclopropyl-1-methyl-1H-pyrazol-5-yl)bicyclo[2.2.2]octan-1-yl)methyl)-N-(3-(5-cyclopropylisoxazol-3-yl)phenyl)-4,4-difluorocyclohexane-1-carboxamide]
7 | 1080 | CCOc1ccc(-c2cc(N(CC34CCC(c5nc(C(C)(C)C)no5)(CC3)CC4)C(=O)C3CCC(C)(O)CC3)ccc2F)cc1 (stereo not shown) [Example 166, N-((4-(3-(tert-butyl)-1,2,4-oxadiazol-5-yl)bicyclo[2.2.2]octan-1-yl)methyl)-N-(4′-ethoxy-6-fluoro-[1,1′-biphenyl]-3-yl)-4-hydroxy-4-methylcyclohexane-1-carboxamide]
